Laboratory results from the OligoGym collection.
Values joined by “and” are separate entries in the source; they are usually repeats but may differ in a detail not shown here. Identical values can stand only once. After the bases stand the sugars from the 5' end (letter, count) and the backbone: PS all phosphorothioate, else s phosphorothioate and o phosphodiester by linkage. Methylation of C is not given here. [mop] = methoxypropylphosphonate linkage; e = 2'-O-(2-methoxyethyl) (MOE); k = constrained ethyl (cEt); d = 2'-deoxy (DNA); m = 2'-O-methyl

Molecular target: IRF5
Settings: ASO

| Sequence | target mRNA inhibition (KARPAS-229, 4 µM) | further results |
| --- | --- | --- |
| CGGTCTTTGAGGTCTG (sugars kkddddddddddkeke, PS) | 43% and 46% | target mRNA inhibition (KARPAS-229, 0.44444 µM): 31%; target mRNA inhibition (KARPAS-229, 1.33333 µM): 29%; target mRNA inhibition (KARPAS-229, 12 µM): 57% |
| CGGTCTTTGAGGTCTG (sugars kkddddddddkekekk, PS) | 33% |  |
| CGGTCTTTGAGGTCTG (sugars kkkddddddddkekek, PS) | 56% |  |
| CGGTGTATTTCCCTGT (sugars k3 d10 k3, PS) | 0% |  |
| CTCTAAACCATTCTAT (sugars k3 d10 k3, PS) | 0% |  |
| CTGATATGATACCTAA (sugars k3 d2 m1 d7 k3, PS) |  | target mRNA inhibition (A-431, 0.00412 µM): 1%; target mRNA inhibition (A-431, 0.01225 µM): 14%; target mRNA inhibition (A-431, 0.03704 µM): 31%; target mRNA inhibition (A-431, 0.11111 µM): 56%; target mRNA inhibition (A-431, 0.33333 µM): 74%; target mRNA inhibition (A-431, 1 µM): 79% |
| CTGATATGATACCTAA (sugars k3 d10 k3, linkages s4 [mop]1 s10) |  | target mRNA inhibition (A-431, 0.00412 µM): 11%; target mRNA inhibition (A-431, 0.01225 µM): 22%; target mRNA inhibition (A-431, 0.03704 µM): 29%; target mRNA inhibition (A-431, 0.11111 µM): 56%; target mRNA inhibition (A-431, 0.33333 µM): 76%; target mRNA inhibition (A-431, 1 µM): 78% |
| CTGAUATGATACCTAA (sugars k3 d1 m1 d8 k3, PS) |  | target mRNA inhibition (A-431, 0.00412 µM): 6%; target mRNA inhibition (A-431, 0.01225 µM): 23%; target mRNA inhibition (A-431, 0.03704 µM): 41%; target mRNA inhibition (A-431, 0.11111 µM): 64%; target mRNA inhibition (A-431, 0.33333 µM): 82%; target mRNA inhibition (A-431, 1 µM): 82% |
| CTGTCACATCTCCACA (sugars k2 d8 e4 k2, PS) | 11% |  |
| CTTCTGCAGGGAGTCA (sugars k2 d8 e4 k2, PS) | 0% |  |
| CTTCTGCAGGGAGTCA (sugars kkddddddddkekekk, PS) | 0% |  |
| CTTGGTCTTGACCTCC (sugars k3 d10 k3, PS) | 41% |  |
| CTTGGTCTTGACCTCC (sugars kddddddddddkekek, PS) | 0% |  |
| CTTGTCTAGTGTCATG (sugars k3 d10 k3, PS) | 58% |  |
| GAATTTTGTGACTGTA (sugars k3 d10 k3, PS) | 57% and 67% | target mRNA inhibition (KARPAS-229, 0.44444 µM): 41%; target mRNA inhibition (KARPAS-229, 1.33333 µM): 66%; target mRNA inhibition (KARPAS-229, 12 µM): 78% |
| GACTGTATTACCTATA (sugars k3 d10 k3, PS) | 41% |  |
| GAGGAAGTGAGTCTCA (sugars k3 d10 k3, PS) | 0% |  |
| GAGTCATGGGCTGAGG (sugars kkdddddddddkekek, PS) | 15% |  |
| GAGTCATGGGCTGAGG (sugars kkkddddddddkekek, PS) | 0% |  |
| GAGTCTCAAACCAGGG (sugars kkddddddddkekekk, PS) | 0% |  |
| GATGGTGTTATCTCCG (sugars k2 d9 e3 k2, PS) | 0% |  |
| GATGGTGTTATCTCCG (sugars kkddddddddkekekk, PS) | 0% |  |

| Sequence | target mRNA inhibition (KARPAS-229, 4 µM) | further results |
| --- | --- | --- |
| GATGGTGTTATCTCCG (sugars kkkddddddddkekek, PS) | 0% |  |
| GCAAAGGGTGAGTAGG (sugars k3 d10 k3, PS) | 24% |  |
| GCACTGACACAGGCGG (sugars kddddddddddkekek, PS) | 0% |  |
| GCATTCCATATACACA (sugars k3 d10 k3, PS) | 21% |  |
| GCATTCCATATACACA (sugars kkddddddddddkeke, PS) | 37% |  |
| GCATTCCATATACACA (sugars kkdddddddddkekek, PS) | 2% |  |
| GCATTCCATATACACA (sugars kkkddddddddkekek, PS) | 0% |  |
| GCTGTCACATCTCCAC (sugars kdddddddddkekeke, PS) | 0% |  |
| GCTGTCACATCTCCAC (sugars kkddddddddddkeke, PS) | 8% |  |
| GCTGTCACATCTCCAC (sugars kkkddddddddkekek, PS) | 0% |  |
| GCTTGGTCTTGACCTC (sugars kkkdddddddddkeke, PS) | 35% |  |
| GGAAGTGAGTCTCAAA (sugars k2 d8 e4 k2, PS) | 34% |  |
| GGAAGTGAGTCTCAAA (sugars k3 d10 k3, PS) | 51% and 68% | target mRNA inhibition (KARPAS-229, 0.44444 µM): 27%; target mRNA inhibition (KARPAS-229, 1.33333 µM): 39%; target mRNA inhibition (KARPAS-229, 12 µM): 79% |
| GGAAGTGAGTCTCAAA (sugars kkdddddddddkdkdk, PS) | 12% |  |
| GGAGTGAGACGAGCAA (sugars k2 d8 e4 k2, PS) | 17% |  |
| GGAGTGAGACGAGCAA (sugars k2 d9 e3 k2, PS) | 25% |  |
| GGTCTGGCCCTTTTGG (sugars k3 d9 k3 e1, PS) | 0% |  |
| GGTCTGGCCCTTTTGG (sugars kkkdddddddddkeke, PS) | 17% |  |
| GGTCTTGACCTCCCGC (sugars k3 d10 k3, PS) | 33% |  |
| GGTCTTGACCTCCCGC (sugars kdddddddddkekeke, PS) | 35% |  |
| GGTCTTGACCTCCCGC (sugars kkddddddddddkeke, PS) | 0% |  |
| GGTCTTGACCTCCCGC (sugars kkdddddddddkekek, PS) | 7% |  |

| Sequence | target mRNA inhibition (KARPAS-229, 4 µM) | further results |
| --- | --- | --- |
| GGTCTTGACCTCCCGC (sugars kkddddddddkekekk, PS) | 44% |  |
| GGTCTTTGAGGTCTGG (sugars kkdddddddddkekek, PS) | 54% |  |
| GGTCTTTGAGGTCTGG (sugars kkkddddddddkekek, PS) | 46% |  |
| GGTGTATTTCCCTGTC (sugars kkkdddddddddkeke, PS) | 0% |  |
| GGTTCTTGGACTCTCA (sugars kkddddddddddkeke, PS) | 51% and 73% | target mRNA inhibition (KARPAS-229, 0.44444 µM): 39%; target mRNA inhibition (KARPAS-229, 1.33333 µM): 59%; target mRNA inhibition (KARPAS-229, 12 µM): 84% |
| GGTTCTTGGACTCTCA (sugars kkkddddddddkekek, PS) | 25% |  |
| GTCATGGAATTTTGTG (sugars k3 d10 k3, PS) | 54% |  |
| GTCTAGTGTCATGGAA (sugars k3 d10 k3, PS) | 38% |  |
| GTCTGGCCCTTTTGGA (sugars kkddddddddddkeke, PS) | 0% |  |
| GTGAGTCTCAAACCAG (sugars kddddddddddkekek, PS) | 0% |  |
| GTGAGTCTCAAACCAG (sugars kkddddddddkekekk, PS) | 9% |  |
| GTGAGTCTCAAACCAG (sugars kkkdddddddddkeke, PS) | 0% |  |
| GTGTATTTCCCTGTCT (sugars kkdddddddddkekek, PS) | 0% |  |
| GTGTATTTCCCTGTCT (sugars kkkddddddddkekek, PS) | 0% |  |
| GTTATCTCCGTCCTGG (sugars k3 d9 k3 e1, PS) | 33% |  |
| GTTATCTCCGTCCTGG (sugars kdddddddddkekeke, PS) | 0% |  |
| GTTATCTCCGTCCTGG (sugars kkddddddddddkeke, PS) | 0% |  |
| GTTATCTCCGTTCCTGG (sugars kddddddddddkekekd, PS) | 0% |  |
| GTTATCTCCGTTCCTGG (sugars kkkddddddddkdkdkd, PS) | 27% |  |
| GTTCTTGGACTCTCAA (sugars kkdddddddddkdkdk, PS) | 20% |  |
| TAAACCATTCTATGCC (sugars k3 d10 k3, PS) | 9% |  |
| TAAGGGCACAGCGCAG (sugars k3 d10 k3, PS) | 0% |  |

| Sequence | target mRNA inhibition (KARPAS-229, 4 µM) | further results |
| --- | --- | --- |
| TAGGAGTGAGACGAGC (sugars k3 d10 k3, PS) | 1% |  |
| TATTTCTGCTCCAGGT (sugars k2 d9 e3 k2, PS) |  | target mRNA inhibition (KARPAS-229, 0.44444 µM): 57%; target mRNA inhibition (KARPAS-229, 1.33333 µM): 71%; target mRNA inhibition (KARPAS-229, 12 µM): 83% |
| TATTTCTGCTCCAGGT (sugars kkddddddddkekekk, PS) | 0% |  |
| TATTTCTGCTCCAGGT (sugars kkkddddddddkekek, PS) | 24% |  |
| TCACCACTGTGTACCC (sugars k2 d8 e4 k2, PS) | 0% |  |
| TCCAATTTTGCATTCC (sugars k3 d10 k3, PS) | 78% and 79% | target mRNA inhibition (KARPAS-229, 0.44444 µM): 38%; target mRNA inhibition (KARPAS-229, 1.33333 µM): 66%; target mRNA inhibition (KARPAS-229, 12 µM): 83% |
| TCCAATTTTGCATTCC (sugars kkddddddddddkeke, PS) | 40% |  |
| TCCAATTTTGCATTCC (sugars kkdddddddddkekek, PS) | 29% |  |
| TCCAATTTTGCATTCC (sugars kkkddddddddkekek, PS) | 51% |  |
| TCTAGTGTCATGGAAT (sugars k3 d10 k3, PS) | 14% |  |
| TCTGATATGATACCTA (sugars k3 d1 k1 d8 k3, PS) |  | target mRNA inhibition (A-431, 0.00412 µM): 0%; target mRNA inhibition (A-431, 0.01225 µM): 7%; target mRNA inhibition (A-431, 0.03704 µM): 43%; target mRNA inhibition (A-431, 0.11111 µM): 65%; target mRNA inhibition (A-431, 0.33333 µM): 81%; target mRNA inhibition (A-431, 1 µM): 85% |
| TCTGATATGATACCTA (sugars k3 d1 m1 d8 k3, PS) |  | target mRNA inhibition (A-431, 0.00412 µM): 1%; target mRNA inhibition (A-431, 0.01225 µM): 8%; target mRNA inhibition (A-431, 0.03704 µM): 35%; target mRNA inhibition (A-431, 0.11111 µM): 57%; target mRNA inhibition (A-431, 0.33333 µM): 77%; target mRNA inhibition (A-431, 1 µM): 81% |
| TCTGATATGATACCTA (sugars k3 d10 k3, linkages s4 [mop]1 s10) |  | target mRNA inhibition (A-431, 0.00412 µM): 10%; target mRNA inhibition (A-431, 0.01225 µM): 14%; target mRNA inhibition (A-431, 0.03704 µM): 43%; target mRNA inhibition (A-431, 0.11111 µM): 66%; target mRNA inhibition (A-431, 0.33333 µM): 80%; target mRNA inhibition (A-431, 1 µM): 87% |
| TCTGATATGATACCTA (sugars k3 d10 k3, linkages s5 [mop]1 s9) |  | target mRNA inhibition (A-431, 0.00412 µM): 10%; target mRNA inhibition (A-431, 0.01225 µM): 6%; target mRNA inhibition (A-431, 0.03704 µM): 38%; target mRNA inhibition (A-431, 0.11111 µM): 56%; target mRNA inhibition (A-431, 0.33333 µM): 71%; target mRNA inhibition (A-431, 1 µM): 77% |
| TCTGGCCCTTTTGGAA (sugars kddddddddddkekek, PS) | 0% |  |
| TCTTGACCTCCCGCTG (sugars kddddddddddkekek, PS) | 46% |  |
| TGACTGTATTACCTAT (sugars k3 d10 k3, PS) | 18% |  |
| TGAGTAGGACGAGTTA (sugars k3 d10 k3, PS) | 18% |  |
| TGAGTCATGGGCTGAG (sugars k2 d8 e4 k2, PS) | 15% |  |
